From patent US20070037886A1, “Bone marrow erythroid progenitor cell(s) differentiation inducer” (priority 2005, published 2007)
Entries after “also recorded” stand apart in the source; their conditions may differ. Positions of bridges follow the written chain, without caps; N, C: chain ends. No end group written: not given here.

Legend:
normal rats = details: repeated administration; cited from earlier work
[1] = tested on: mouse bone marrow cells (CFU-E); assay: CFU-E colony assay with EPO mimetic peptide EMP1; assay type: cell-based
Description: After a female BDF-1 mouse at 10 weeks of age (Charles River Japan, Inc.) was killed by the cervical dislocation method, bone marrow cells were isolated from the femur and suspended in an IMDM medium (Invitrogen) containing 10% FCS (JRH Bioscience Inc). The bone marrow cells were centrifuged at 1500 rpm for 10 minutes at 4° C. and the precipitated bone marrow cells were resuspended in an amino acid-free IMDM medium and the number of cells was measured. To a dish with a diameter of 3.5 cm (Nalgen Nunc, Inc. International), 1 ml of a methyl cellulose semi-solid medium in which the bone marrow cells were suspended {30 μM EMP1, 100 μM 2-mercaptoethanol (Wako Pure Chemical Industries, Ltd.), 24% FCS (JRH Bioscience Inc.), 0.8% methyl cellulose (methyl cellulose containing IMDM solution […], Stem Cell Technologies, Inc.), 2% BSA (SIGMA-ALDRICH Japan K.K.), 1×10^5 cells/ml of bone marrow cells} containing arginine at a concentration of 170 μM was added (which is equal to an IMDM medium whose concentration of the amino acid composition is one-third and which includes FCS at 24%). […] Then, the number of CFU-E colonies was measured using an inverted microscope. […] The data is expressed as a mean value ±SEM. […]

[2] = tested on: mouse bone marrow cells (CFU-E); assay: in vitro mouse CFU-E colony assay (methyl cellulose semi-solid medium, with rHuEPO); assay type: cell-based
Description: In the case of oral administration to rats, the blood arginine concentration reaches about 600 μM by a single-dose administration of arginine at 1.2 g/kg. Therefore, it is expected that the number of CFU-E increases in a dose-dependent manner by such an oral administration. Also in humans, it is expected that the number of CFU-E increases as the concentration of arginine in the blood increases by the oral administration.
An in vitro mouse CFU-E colony assay was carried out in accordance with the following method. After a female BDF-1 mouse at 10 weeks of age (Charles River Japan, Inc.) was killed by the cervical dislocation method, bone marrow cells were isolated from the femur and suspended in an IMDM medium (Invitrogen) containing 10% FCS (JRH Bioscience Inc). The bone marrow cells were centrifuged at 1500 rpm for 10 minutes at 4° C. and the precipitated bone marrow cells were resuspended in an amino acid-free IMDM medium and the number of cells was measured. […] Then, the number of CFU-E colonies was measured using an inverted microscope. […]
In the graph, * indicates P<0.05. The data is expressed as a mean value±SEM. […]

**Q.** What does the source list for `N=C(N)NCCC[C@H](N)C(=O)O` [arginine]?
**A.** amount of hemoglobin (normal rats): increased; amount of red blood cells (normal rats): increased; number of CFU-E colonies ([1]; arginine 770 μM vs 170 μM, 30 μM EMP1, 48 hours, P<0.05): increased the number of CFU-E; number of CFU-E colonies ([2]; arginine 600 μM vs 170 μM, 1 IU/ml rHuEPO, 48 hours, per 2.2×10^5 bone marrow cells, P<0.05): increased the number of CFU-E; also recorded: further increases CFU-E; also recorded: significantly increases; combined effect of arginine with EPO on CFU-E ([2]; arginine concomitantly with a sufficient amount of EPO): synergistic effect

**Q.** Which “amount of EMP1 for the highest action (CFU-E colonies)” value ([1]; same condition as FIG. 2A, FIG. 2B) does the source give for “GGTYSCHFGPLTWVCKPQGG-NH2 (disulfide 6-15; N-terminus assumed; SMILES CC(C)C[C@@H]1NC(=O)[C@@H]2CCCN2C(=O)CNC(=O)[C@H](Cc2ccccc2)NC(=O)[C@H](Cc2c[nH]cn2)NC(=O)[C@@H](NC(=O)[C@H](CO)NC(=O)[C@H](Cc2ccc(O)cc2)NC(=O)[C@@H](NC(=O)CNC(=O)CN)[C@@H](C)O)CSSC[C@@H](C(=O)N[C@@H](CCCCN)C(=O)N2CCC[C@H]2C(=O)N[C@@H](CCC(N)=O)C(=O)NCC(=O)NCC(N)=O)NC(=O)[C@H](C(C)C)NC(=O)[C@H](Cc2c[nH]c3ccccc23)NC(=O)[C@H]([C@@H](C)O)NC1=O) [EMP1, EPO mimetic peptide described in Science, vol; 273, pp. 458-463 (1996), reference compound]” here?
**A.** ≥ 10 µM
